Values quoted from earlier work in patent US20050003341A1, “Drug discovery assays based on the biology of atherosclerosis, cancer, and alopecia” (priority 2003, published 2005).
Read-outs that look alike come from different tables or passages of the source.

What was measured:
[1] = system: U937; details: p<0.05
[2] = system: ERK
[3] = system: TF
[4] = system: TF; details: for Cu^+2 induced procoagulant activity: probucol 20, vitamin E 50, BHT 50, U74389G 20 μmol/L
[5] = system: AT1-receptor; details: 25 mg/kg/day
[6] = system: apoE(−/−) mice; details: aortic sinus, 48 hours post injection
[7] = system: TF; details: cells incubated with AGE-alb
[8] = system: AR gene; details: 10^−8 M
[9] = system: TF; details: THP-1
[10] = system: TF; details: Western blotting; untreated smokers 2.3±0.7
[11] = system: leukocytes; details: 0.1 and 1 mM, similar in vitro assay
[12] = system: leukocytes; details: 5-20 mg/kg/day, oral
[13] = system: CD18; details: neutrophils, 10^−8 M for 10 min
[14] = system: cell attachment to fibronectin; details: for cell attachment to coated plates: six ocular melanoma cell lines (Mac Neil 1994A)
[15] = system: NF-κB
[16] = system: NF-κB; remark: listed apart in the source
[17] = system: apo(a) transgenic mice; details: 15 μg, 12 weeks
[18] = system: ACE
[19] = system: ACE; details: 0.5 mg/kg/day, p<0.05
[20] = system: fibronectin
[21] = system: isolated hair follicles; details: for scalp hair growth: Philpott 1996
[22] = system: VCAM-1; details: 36 dyn/cm^2; 7.0-13.99 minutes
[23] = system: U251.3 glioma cells; details: 3-100 μg/ml, dose dependently
[24] = system: TF; details: cultured monocytes
[25] = system: CD40; details: concentration- and time-dependent
[26] = a variety of cells, cited studies
[27] = Peterziel 1999, dependent on presence of AR

In the case of `CC(C)CCC[C@@H](C)[C@H]1CC[C@H]2[C@@H]3C(=O)C=C4C[C@@H](O)CC[C@]4(C)[C@H]3CC[C@]12C` [7-ketocholesterol], the “GSH content compared to controls” value [1] is given as “lower GSH content”.

In the case of `CNc1ccc2oc(C[C@H]3O[C@@]4(CC[C@H]3C)O[C@H]([C@H](C)C(=O)c3ccc[nH]3)[C@H](C)C[C@H]4C)nc2c1C(=O)O` [A 23187], the ERK phosphorylation [2, 26] is given as “increase”.

In the case of `CC1=C(/C=C/C(C)=C/C=C/C(C)=C/C(=O)O)C(C)(C)CCC1` [ATRA, all-trans retinoic acid], the “rate of TF transcription, nuclear run-on” value ([3]; LPS 10 μg/ml 1 hour, ATRA 10^−5 mol/L 30 minutes before LPS) is given as “decreased TF transcription”, the “TF mRNA” value ([3]; THP-1, 30 minutes, 10^−5 mol/L) is given as “decrease” and the “LUC activity relative to untreated cells” value ([3]; pTF(−2106)LUC transfected THP-1, 30 minutes, 10^−5 mol/L) is given as “no decrease”.

For `Cc1cc(C(C)(C)C)c(O)c(C(C)(C)C)c1` [BHT], the “Cu^+2 induced procoagulant activity” value [4] is listed as “inhibited”.

For `CCCCc1cc(C(=O)OC)cc(=O)n1Cc1ccc(-c2ccccc2-c2nnn[nH]2)cc1F` [Bay 10-6734], the “fat-stained area in the aorta” value ([5]; controls 28.6±7.5%) is given as 5.3±1.4% and the “% of macrophage stained area/total plaque cross sectional area” value ([5]; controls 58.8±15%) is given as 1±0.2%.

In the case of `[Cu+2]` [Cu^+2], the procoagulant activity ([4]; 10 hours, up to 20 μmol/L, without 8-hydroxyquinoline) is given as “no effect”, the “TF mRNA levels” value ([4]; at 2 hours, relative to basal) is given as 50% and the “increase in TF mRNA” value ([4]; at 6 hours) is given as 3.5 fold.

In the case of `C[C@]12CCC(=O)C[C@@H]1CC[C@@H]1[C@@H]2CC[C@]2(C)[C@@H](O)CC[C@@H]12` [DHT, Dihydrotestosterone], the ERK phosphorylation [2] is given as “**The study reports no increase in ERK phosphorylation in LNCaP or PC-3 cells following treatment with DHT” and the Elk-1 transcription activity [2] is given as “*The study also showed an increase in Elk-1 transcription activity following treatment with the androgen DHT, or the antiandrogens casodex and hydroxyflutamide. ERK phosphorylation activates Elk-1, which is a member of the ETS family”.

In the case of `CCCCCCCCCCCCCCCC(=O)OC[C@H](COP(=O)([O-])OCC[N+](C)(C)C)OC(=O)CCCCCCCCCCCCCCC` [DPPC, dipalmitoylphosphatidylcholine], the macrophage content ([6]; saline 10.4±3.4) is listed as 9.3±5.8 % of plaque area and the lipid content ([6]; saline 19.6±6.3) is listed as 18.1±4.7 % of plaque area.

For `CC(=O)N[C@@H](CS)C(=O)O` [NAC, N-acetylcysteine], the TF activity [7] is given as “concentration dependent inhibition”.

For `C[C@]1(O)CC[C@H]2[C@@H]3CCC4=CC(=O)CCC4=C3C=C[C@@]21C` [R1881, methyltrienolone], the “transcription of the endogenous AR gene, of control levels” value ([8]; 8 hours) is listed as 85% and the “transcription of the endogenous AR gene, of control levels” value ([8]; 24 hours) is listed as 73%.

In the case of `CCCCCCCCCCCCCC(=O)O[C@@H]1[C@@H](C)[C@@]2(O)[C@@H](C=C(CO)C[C@]3(O)C(=O)C(C)=C[C@@H]23)[C@@H]2C(C)(C)[C@]12OC(C)=O` [TPA, phorbol 12-myristate 13-acetate], the ERK phosphorylation [2, 26] is given as “increase”.

For `C[C@]12C=CC(=O)C=C1CC[C@@H]1C2=CC[C@]2(C)[C@@H](C(=O)CN3CCN(c4cc(N5CCCC5)nc(N5CCCC5)n4)CC3)CC[C@@H]12.O=C(O)/C=C\C(=O)O` [U74389G], the “Cu^+2 induced procoagulant activity” value [4] is given as “inhibited”.

In the case of `CC(=O)Oc1ccccc1C(=O)O` [aspirin, Acetylsalicylic Acid], the “LPS-induced translocation of c-Rel/p65” value [9] is given as “inhibited”, the “increase in TF concentration compared to non-smoker mice” value [10] is given as 1.3±0.17 fold and the “migration of human lymphocytes” value [11] is given as “stimulated migration”. The “increase in leukocyte migration relative to control values” [12] was 20-70%.

In the case of `CC(O)(CS(=O)(=O)c1ccc(F)cc1)C(=O)Nc1ccc(C#N)c(C(F)(F)F)c1` (stereo not shown) [casodex], the Elk-1 transcription activity [2, 27] is given as “*The study also showed an increase in Elk-1 transcription activity following treatment with the androgen DHT, or the antiandrogens casodex and hydroxyflutamide. ERK phosphorylation activates Elk-1, which is a member of the ETS family”.

In the case of `CC[C@H]1CN2CCc3cc(OC)c(OC)cc3[C@@H]2C[C@@H]1C[C@H]1NCCc2cc(OC)c(OC)cc21` [emetine], the “c-mos expression and ERK phosphorylation” value ([2]; starfish eggs) is given as “inhibition”.

In the case of `CSCC[C@H](NC=O)C(=O)N[C@@H](CC(C)C)C(=O)N[C@@H](Cc1ccccc1)C(=O)O` [fMLP, N-formylmethionyl-leucyl-phenylalanine], the “increase in CD18 surface membrane concentration compared to unstimulated cells” value [13] is given as 4 fold.

For `CC(C)(O)C(=O)Nc1ccc([N+](=O)[O-])c(C(F)(F)F)c1` [hydroxyflutamide], the Elk-1 transcription activity [2, 27] is given as “*The study also showed an increase in Elk-1 transcription activity following treatment with the androgen DHT, or the antiandrogens casodex and hydroxyflutamide. ERK phosphorylation activates Elk-1, which is a member of the ETS family”.

In the case of `C[C@H](CCC(=O)O)C[C@H](C)C[C@H](C)C(=O)/C=C(\O)[C@H](C)C[C@H](C)C/C=C/[C@@H](C)[C@@H](O)[C@@H](C)[C@@H](O)C[C@@H]1CC[C@@](C)([C@H]2CC[C@@](C)([C@@H](C)O)O2)O1` [ionomycin], the “cell attachment to coated plates” value [14] is given as “Significant inhibition”.

For `CC[C@H](C)C(=O)O[C@H]1CCC=C2C=C[C@H](C)[C@H](CC[C@@H]3C[C@@H](O)CC(=O)O3)[C@H]21` [mevastatin], the NF-κB activation ([15]; EC) is given as “inhibited”.

For `O=C(O)C[C@H](O)C[C@H](O)/C=C/c1c(C2CC2)nc2ccccc2c1-c1ccc(F)cc1` [pitavastatin], the NF-κB activation ([15]; human kidney 293 T-cells) is listed as “inhibited”.

For `CC(C)(Sc1cc(C(C)(C)C)c(O)c(C(C)(C)C)c1)Sc1cc(C(C)(C)C)c(O)c(C(C)(C)C)c1` [probucol], the “Cu^+2 induced procoagulant activity” value [4] is given as “inhibited”.

For `CCOC(=O)[C@H](CCc1ccccc1)N[C@@H](C)C(=O)N1Cc2ccccc2C[C@H]1C(=O)O` [quinapril], the “NF-κB activity in atherosclerotic vessels” value ([16]; rabbit femoral arteries) is listed as “decreased”.

In the case of `CC/C(=C(\c1ccccc1)c1ccc(OCCN(C)C)cc1)c1ccccc1` [tamoxifen], the “cell attachment to ECM, fibronectin, collagen type I or IV” value ([14]; ZR75-1 breast cancer cells (Millon 1989)) is given as “decreased attachment”, the “cell attachment to fibronectin” value ([14]; retinal pigment epithelial (RPE) cells (Wagner 1995)) is given as “decreased attachment” and the “cell attachment to coated plates” value [14] is given as “significant inhibition”. The “decrease in area of focal apo(a) accumulation” value [17] was 97%, the “decrease in average level of apo(a) in the vessel wall” value [17] was 69% and the “decrease in lesion area” value [17] was 92%. The “decrease in number of lipid lesions” value [17] was 80%.

In the case of `C[C@H](CSC(=O)c1ccccc1)C(=O)N1C[C@@H](Sc2ccccc2)C[C@H]1C(=O)O` [zofenopril], the “macrophage-derived foam cells staining in the intima” value ([18]; 1 mg/kg/day) is listed as “significant decrease”, the “native LDL staining in the intima” value ([18]; 1 mg/kg/day) is listed as “significant decrease” and the “total lesion area compared to placebo” value ([18]; zofenopril 0.05 or 1, captopril 5, enalapril 0.5 mg/kg/day) is listed as “significantly decreased”. For the same molecule, the “decrease in aortic corrected cumulative lesion area” value [19] was 34% and the “decrease in common carotid corrected cumulative lesion area” value [19] was 39%.

For `NCCCCCC(=O)O` [ε-ACA], the “Lp(a) binding to fibronectin” value [20] is listed as “not effective” and the “plasminogen binding to fibronectin” value [20] is listed as “inhibited”.

In the case of IL-1β: interleukin 1β, the hair growth ([21]; Hoffmann 1997, 6 days, A 23187 2 μM, TPA 1 μM, IL-1β 100 ng per ml) is given as “significantly inhibited hair growth” and the scalp hair growth [21] is given as “inhibition”.

In the case of MCP-1: a chemokine, the “average percent of monocyte remaining bound” value [22] is listed as 46%.

In the case of TNC: large ECM glycoprotein, the migration distance [23] is given as “increased migration distance”.

In the case of TNFα, the ERK phosphorylation [2, 26] is listed as “increase” and the scalp hair growth [21] is listed as “inhibition”.

For “angiotensin II: angiotensin II (DRVYIHPF; Angiotensin-2; UniProt P01019 25-32, looked up)”, the NF-κB activation ([16]; cultured monocytes and VSMC) is given as “increased” and the “TF antigen and mRNA” value [24] is given as “dose-depended increase”.

In the case of apo(a): apolipoprotein(a), the “plasminogen binding to fibronectin” value [20] is listed as “completely abolished”.

For estrogen, the ERK phosphorylation [2, 26] is given as “increase”.

In the case of vitamin E, the “LPS induced TF expression” value [4] is given as “inhibited” and the “Cu^+2 induced procoagulant activity” value [4] is given as “inhibited”.

B1: CD40L: ligand of CD40, native or recombinant human (protein, UniProt P29965 113-261, looked up)
CD40 ligand, soluble form: MQKGDQNPQIAAHVISEASSKTTSVLQWAEKGYYTMSNNLVTLENGKQLTVKRQGLYYIYAQVTFCSNREASSQAPFIASLCLKSPGRFERILLRAANTHSSAKPCGQQSIHLGGVFELQPGASVFVNVTDPSQVSHGTGFTSFGLLKL
For B1, the “TF expression on the surface of cultured human vascular SMC” value [25] is listed as “transient increase”.

B2: IL-1a: interleukin 1α (protein, UniProt P01583 113-271, looked up)
Interleukin-1 alpha: SAPFSFLSNVKYNFMRIIKYEFILNDALNQSIIRANDQYLTAAALHNLDEAVKFDMGAYKSSKDDAKITVILRISKTQLYVTAQDEDQPVLLKEMPEIPKTITGSETNLLFFWETHGTKNYFTSVAHPNLFIATKQDYWVCLAGGPPSITDFQILENQA
For B2, the scalp hair growth [21] is listed as “inhibition”.
